Test results as given in the supplement of paper PMC10307832.

How the values were obtained:
Assay in all cases: relative viability (nuclei count vs DMSO), 5 days (fraction); higher = more cells survive
VE-821 + Lapatinib = compound: CS(=O)(=O)c1ccc(-c2cnc(N)c(C(=O)Nc3ccccc3)n2)cc1 [VE-821] + CS(=O)(=O)CCNCc1ccc(-c2ccc3ncnc(Nc4ccc(OCc5cccc(F)c5)c(Cl)c4)c3c2)o1 [Lapatinib] (partner 2 µM)
Procedure, shortened: (§1)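 Lung cancer cell lines in 1536-well plates got either a single drug or a fixed anchor-drug dose together with five library-drug doses (not always all listed) in √10 steps, by pin tool, on the day after seeding. Nuclei were counted after 5 days, and relative viability is the treated-to-vehicle ratio of nuclei counts. Values are medians of duplicate plates.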

Ruxolitinib + Trametinib = compound: N#CC[C@H](C1CCCC1)n1cc(-c2ncnc3[nH]ccc23)cn1 [Ruxolitinib] + CC(=O)Nc1cccc(-n2c(=O)n(C3CC3)c(=O)c3c(Nc4ccc(I)cc4F)n(C)c(=O)c(C)c32)c1 [Trametinib] (partner 0.02 µM)
Procedure, shortened: as §1

VE-821 + AZD7762 = compound: CS(=O)(=O)c1ccc(-c2cnc(N)c(C(=O)Nc3ccccc3)n2)cc1 [VE-821] + NC(=O)Nc1cc(-c2cccc(F)c2)sc1C(=O)N[C@H]1CCCNC1 [AZD7762] (partner 0.2 µM)
Procedure, shortened: as §1

Ruxolitinib + Olaparib = compound: N#CC[C@H](C1CCCC1)n1cc(-c2ncnc3[nH]ccc23)cn1 [Ruxolitinib] + O=C(c1cc(Cc2n[nH]c(=O)c3ccccc23)ccc1F)N1CCN(C(=O)C2CC2)CC1 [Olaparib] (partner 8 µM)
Procedure, shortened: as §1

Cell Line	relative viability (VE-821 + Lapatinib; first compound 0.08 µM)	relative viability (VE-821 + Lapatinib; first compound 0.253 µM)	relative viability (VE-821 + Lapatinib; first compound 0.8 µM)	relative viability (VE-821 + Lapatinib; first compound 2.53 µM)	relative viability (VE-821 + Lapatinib; first compound 8 µM)	relative viability (Ruxolitinib + Trametinib; first compound 0.08 µM)	relative viability (Ruxolitinib + Trametinib; first compound 0.253 µM)	relative viability (Ruxolitinib + Trametinib; first compound 0.8 µM)	relative viability (Ruxolitinib + Trametinib; first compound 2.53 µM)	relative viability (Ruxolitinib + Trametinib; first compound 8 µM)	relative viability (VE-821 + AZD7762; first compound 0.08 µM)	relative viability (VE-821 + AZD7762; first compound 0.253 µM)	relative viability (VE-821 + AZD7762; first compound 0.8 µM)	relative viability (VE-821 + AZD7762; first compound 2.53 µM)	relative viability (VE-821 + AZD7762; first compound 8 µM)	relative viability (Ruxolitinib + Olaparib; first compound 0.08 µM)	relative viability (Ruxolitinib + Olaparib; first compound 0.253 µM)	relative viability (Ruxolitinib + Olaparib; first compound 0.8 µM)	relative viability (Ruxolitinib + Olaparib; first compound 2.53 µM)	relative viability (Ruxolitinib + Olaparib; first compound 8 µM)
201T	1.1	0.937	0.966	1.01	0.976	0.753	0.803	0.927	0.907	0.922	0.67	0.578	0.585	0.648	0.46	0.941	0.964	0.972	1.01	0.894
A549	1.14	0.849	0.929	0.829	0.475	–	–	–	–	–	–	–	–	–	–	0.226	0.36	0.35	0.331	0.0796
A-427	1.08	0.998	1.06	1.1	0.676	0.808	0.757	0.96	0.636	0.728	0.767	0.599	0.417	0.362	0.327	0.749	0.732	0.739	0.67	0.632
ABC-1	1.3	1.32	0.811	0.953	0.994	–	–	–	–	–	0.86	0.767	0.94	0.714	0.628	–	0.886	0.892	0.505	1.02
BEN	0.845	0.775	0.657	0.8	0.662	1.01	1.01	1.13	0.99	1.35	0.651	0.62	0.675	0.505	0.396	1.16	1.27	1.24	0.96	0.994
CAL-12T	0.656	0.7	0.637	0.839	0.456	0.341	0.375	0.376	0.241	0.31	0.568	0.514	0.512	0.352	0.239	0.627	0.779	0.756	0.673	0.67
COR-L23	1.09	0.827	1.01	1.12	0.94	0.766	0.616	0.878	0.276	0.508	–	–	–	–	–	0.369	0.371	0.376	0.329	0.272
COR-L 105	0.383	0.354	0.341	0.351	0.463	–	0.472	0.424	0.381	0.432	–	–	–	–	–	–	0.614	0.652	0.614	0.606
Calu-6	1.21	1.05	1.1	0.89	0.551	–	–	–	–	–	–	–	–	–	–	0.575	0.62	0.577	–	0.39
ChaGo-K-1	–	–	–	–	–	0.885	0.887	0.828	0.803	0.765	0.884	0.729	0.866	0.747	0.48	0.42	0.445	0.379	0.347	0.319
EBC-1	0.241	0.195	0.209	0.216	0.265	–	–	–	–	–	–	–	–	–	–	0.718	0.726	0.77	0.708	0.533
EKVX	0.209	0.196	0.219	0.242	0.186	–	0.318	0.348	0.265	0.361	0.754	0.638	0.696	0.744	0.424	–	0.837	0.947	0.731	0.759
EMC-BAC-2	1.04	0.902	0.97	1.01	0.873	0.886	0.806	1.08	0.768	0.948	1.15	1.02	1.12	1.19	0.587	0.465	0.482	0.478	0.478	0.406
EPLC-272H	1.07	0.976	1.12	1.24	0.848	0.322	0.334	0.41	0.286	0.337	0.163	0.149	0.2	0.188	0.127	0.829	0.922	0.818	0.544	0.344
H3255	0.229	0.256	0.378	0.241	0.264	–	0.548	0.725	0.465	0.648	0.96	0.927	0.913	0.932	0.649	0.532	0.547	0.539	0.443	0.457
HARA	0.825	0.559	0.826	0.757	0.47	0.639	0.622	1.07	0.269	0.775	0.256	0.315	0.145	0.158	0.249	1.17	0.841	1.04	0.793	0.584
HCC-15	0.958	0.875	0.87	1.09	0.796	0.348	0.382	0.395	0.322	0.355	1.35	0.434	1.23	1.29	1.26	0.72	0.692	0.721	0.537	0.454
HCC-44	1.04	1.07	1.07	1.09	1.08	1.04	0.971	0.997	0.753	1.02	0.94	0.944	1.07	0.964	0.914	0.958	0.889	0.978	0.922	0.995
HCC-78	1.06	0.795	0.371	1.03	0.255	0.679	0.7	0.609	0.45	0.517	0.679	0.626	0.5	0.58	0.392	0.779	0.872	0.897	0.866	0.934
